Experimental data reported in patent publication US9676811B2, “Testosterone derivatives with a carboxyalkyl substitution in position 3 and use thereof for the production of labelled steroids for determining the concentration of testosterone in a biological sample” (BIOMERIEUX, priority 2012, dated 2017).

Assays:
Type in all cases: binding
[1] = tested on: anti-testosterone antibody Ab2 (mouse monoclonal IgG, clone 15H9H10); assay: VIDAS® competitive testosterone immunoassay, format Ab2 + Conjugate 1 of the invention; details: for B/B0% / Signal (RFV): conjugate 3 ng/ml
Procedure: (§1) Competition then takes place between the testosterone present in the sample and the testosterone derivative of the conjugate for the sites of the anti-testosterone antibody fixed on the cone. The washing steps are carried out with the buffer Tris-NaCl (0.05 mol/l) pH 7.4 or with diethanolamine (1.1 mol/1) pH 9.8 and make it possible to remove the compounds that are not fixed. During the final development step, the substrate 4-methylombelliferyl phosphate is aspirated and then introduced into the cone; the enzyme of the conjugate catalyzes the reaction of hydrolysis of this substrate in 4-methylombelliferone, and the fluorescence emitted from the latter is measured at 450 nm. The value of the fluorescence signal is inversely proportional to the concentration of the testosterone present in the sample. This concentration is calculated relative to a calibration curve.
(§2) For the other assays, we used the reagents of the VIDAS® testosterone kit (Cat. No 30418) and the assay protocol given in the instructions with the kit, with the following modifications: • Cones were sensitized with other anti-testosterone antibodies: 2 mouse monoclonal immunoglobulins G (IgG), the clones 19E10H6 and 15H9H10 (bioMerieux), which will be called Ab1 and Ab2 respectively, and 1 sheep monoclonal IgG, the clone testo3.6A3 (Bioventix), which will be called Ab3. As in the cone of the format of the reference assay, the anti-testosterone antibodies were captured by anti-species polyclonal antibodies adsorbed on the cone beforehand. It is a sheep anti-mouse IgG polyclonal antibody for Ab1 and Ab2, and a donkey anti-sheep IgG polyclonal antibody for Ab3. The anti-species antibodies are diluted to a concentration between 1 and 12 μg/ml in the sensitizing solution. After incubation for 6 h at +18/25° C., washing is carried out with saline solution. Then the solution of anti-testosterone antibodies containing a saturating agent of the protein or peptide type is added (concentration of the antibody: 0.01-0.2 μg/ml). Sensitization/passivation is continued at +18/25° C. overnight. Then the cones are emptied and dried. • The cones sensitized with the antibody Ab1 are tested with the VIDAS® conjugate, diluted to 1/2.5 for the tests with the monoclonal antibody. The cones sensitized with the antibodies Ab2 and Ab3 are tested with conjugate 1 of the invention prepared in example 9. This last-mentioned conjugate is used at a concentration of 3 ng/ml for the tests with the cones sensitized with the antibody Ab2 and 2.5 ng/ml for the cones sensitized with the antibody Ab3. • The conversion to dose is performed based on a standard 10-point range manufactured by supplementing woman's serum with testosterone in ethanolic solution. The nominal concentrations of each of the points are: 0.001 ng/ml-0.03 ng/ml-0.18 ng/ml-0.41 ng/ml-0.76 ng/ml-1.29 ng/ml-1.91 ng/ml-3.82 ng/ml-7.48 ng/ml-11.55 ng/ml. • The sample volume taken for each assay is 200 μl.
(§3) The standard range was measured with each assay format. Table 1 below summarizes the results obtained as RFV signal (relative fluorescence value) and B/B0% ratio, for the dilutions of the standard range. The ratio B/B0 is the signal obtained for the range point tested divided by the signal obtained for the range point 0.001 ng/ml of testosterone, multiplied by 100.
Secondly, to confirm that the format Ab2+Conjugate 1 of the invention is far more sensitive than the reference format REF, VIDAS® Testosterone kit, for which the measurement range recommended in the instructions extends from 0.1 to 13 ng/ml, these two formats were compared against serum samples obtained from the Etablissements Français du Sang (the French National Blood Service). These were 4 samples collected from women (codes with F), for whom the serum testosterone level is below 1 ng/ml, and 2 samples collected from men (codes with M). […]

[2] = tested on: anti-testosterone antibody Ab3 (sheep monoclonal IgG, clone testo3.6A3); assay: VIDAS® competitive testosterone immunoassay, format Ab3 + Conjugate 1 of the invention; details: for B/B0% / Signal (RFV): conjugate 2.5 ng/ml
Procedure: as §1, §2, §3

[3] = tested on: sheep anti-testosterone monoclonal antibody clone 3.6A3 (Ab3); assay: Microplate competitive testosterone immunoassay, Ab3 + Conjugate 2 of the invention, streptavidin-peroxidase/TMB; details: for B/B0% / OD450-OD630: conjugate 0.2 ng/well
Procedure: 100 μl/well of the mouse anti-goat Fe IgG monoclonal antibody (clone 9A4A5, bioMerieux) diluted to 10 μg/ml in PBS buffer 1× is distributed in a 96-well microplate (Nunc Maxisorp F96). The microplate is incubated overnight at room temperature in order to obtain adsorption of the antibody. The microplate is emptied, and then 300 μl/well of passivating buffer (buffer Tris 0.2 M pH 6.2) containing a saturating agent of the protein or peptide type, and the sheep anti-testosterone monoclonal antibody clone 3.6A3 (Ab3-bioVentix) diluted to 0.2 μg/ml are added. The microplate is incubated for 1 h at 37° C. Three washings are carried out with TBS (Tris buffered saline)-Tween®-20 0.05%. The range points used in example 10 are diluted to 1/2 in Tris buffer; 100 μl of these dilutions are distributed in the wells of the plate. After incubation for 1 h at 37° C., the wells are emptied and 0.2 ng/well of Conjugate 2 of the invention testosterone-3β-EMC-DAP-biotin in Tris buffer is added. The reaction with the conjugate is carried out for 15 minutes at 37° C., and is followed by 3 washings. 100 μl/well of streptavidin-peroxidase solution (Jackson Immunoresearch Cat. No. 016-30-084) diluted to 1/20 000 in TBS-Tween®-20 0.05%, BSA 2% is added and the microplate is incubated for 30 min at 37° C. After 3 washings, 100 μl/well of the 1-step Ultra TMB substrate (Thermo Scientific, Cat. No. 34028) is added and the microplate is incubated for 5 min at room temperature, away from the light. The reaction is then stopped by adding 100 μl of 2M sulfuric acid. The optical density (OD) at 450 nm and at 630 nm is measured in a microplate reader. For each well, the optical density at 630 nm is subtracted from the optical density at 450 nm.

[4] = testosterone 0.001 ng/ml range point
[5] = testosterone 0.03 ng/ml range point
[6] = testosterone 0.18 ng/ml range point
[7] = testosterone 0.41 ng/ml range point
[8] = testosterone 0.76 ng/ml range point
[9] = testosterone 1.29 ng/ml range point
[10] = testosterone 1.91 ng/ml range point
[11] = testosterone 3.82 ng/ml range point
[12] = testosterone 7.48 ng/ml range point
[13] = testosterone 11.55 ng/ml range point
[14] = testosterone 0.001 ng/ml range point (diluted to 1/2)
[15] = testosterone 0.03 ng/ml range point (diluted to 1/2)
[16] = testosterone 0.18 ng/ml range point (diluted to 1/2)
[17] = testosterone 0.41 ng/ml range point (diluted to 1/2)
[18] = testosterone 0.76 ng/ml range point (diluted to 1/2)
[19] = testosterone 1.29 ng/ml range point (diluted to 1/2)
[20] = testosterone 3.82 ng/ml range point (diluted to 1/2)
[21] = testosterone 11.55 ng/ml range point (diluted to 1/2)

Compound: 17β-Hydroxy-3β-Carboxymethoxyandrost-4-ene/Alkaline Phosphatase [Conjugate 1 of the invention]
- sensitivity of the assay format (comparison of formats) ([1]; FIG. 1): slightly more sensitive than the reference format
- B/B0% [1, 4]: 100%
- Signal (RFV) [1, 4]: 4077 RFV
- B/B0% [1, 5]: 86%
- Signal (RFV) [1, 5]: 3490 RFV
- B/B0% [1, 6]: 72%
- Signal (RFV) [1, 6]: 2935 RFV
- B/B0% [1, 7]: 62%
- Signal (RFV) [1, 7]: 2527 RFV
- B/B0% [1, 8]: 55%
- Signal (RFV) [1, 8]: 2238 RFV
- B/B0% [1, 9]: 46%
- Signal (RFV) [1, 9]: 1880 RFV
- B/B0% [1, 10]: 42%
- Signal (RFV) [1, 10]: 1729 RFV
- B/B0% [1, 11]: 31%
- Signal (RFV) [1, 11]: 1264 RFV
- B/B0% [1, 12]: 22%
- Signal (RFV) [1, 12]: 905 RFV
- B/B0% [1, 13]: 16%
- Signal (RFV) [1, 13]: 632 RFV
- sensitivity of the assay format (comparison of formats) ([2]; FIG. 1): most sensitive
- testosterone concentration giving a 50% decrease in the signal ([2]; from graph of FIG. 1): about 0.2 ng/ml
- B/B0% [2, 4]: 100%
- Signal (RFV) [2, 4]: 3209 RFV
- B/B0% [2, 5]: 78%
- Signal (RFV) [2, 5]: 2492 RFV
- B/B0% [2, 6]: 53%
- Signal (RFV) [2, 6]: 1700 RFV
- B/B0% [2, 7]: 44%
- Signal (RFV) [2, 7]: 1403 RFV
- B/B0% [2, 8]: 40%
- Signal (RFV) [2, 8]: 1286 RFV
- B/B0% [2, 9]: 30%
- Signal (RFV) [2, 9]: 960 RFV
- B/B0% [2, 10]: 31%
- Signal (RFV) [2, 10]: 990 RFV
- B/B0% [2, 11]: 20%
- Signal (RFV) [2, 11]: 644 RFV
- B/B0% [2, 12]: 12%
- Signal (RFV) [2, 12]: 380 RFV
- B/B0% [2, 13]: 6%
- Signal (RFV) [2, 13]: 205 RFV

Compound: CC12CC[C@H](OCC(=O)NCCCNC(=O)CCCCC3SCC4NC(=O)NC43)C=C1CCC1C2CCC2(C)C(O)CCC12 (stereo partly drawn) [Conjugate 2 of the invention, 17-β-Hydroxy-3-β-Carboxymethoxyandrost-4-ene/Biotin]
- character of the testosterone assay range versus format Ab2+Conjugate 1 on VIDAS® ([3]; FIG. 2): comparable
- sensitivity of the microplate assay (comparison) ([3]; FIG. 2): more sensitive than the VIDAS® assays using the VIDAS® Conjugate
- B/B0% [3, 14]: 100%
- OD450-OD630 [3, 14]: 2.52
- B/B0% [3, 15]: 83%
- OD450-OD630 [3, 15]: 2.10
- B/B0% [3, 16]: 74%
- OD450-OD630 [3, 16]: 1.88
- B/B0% [3, 17]: 64%
- OD450-OD630 [3, 17]: 1.61
- B/B0% [3, 18]: 54%
- OD450-OD630 [3, 18]: 1.36
- B/B0% [3, 19]: 40%
- OD450-OD630 [3, 19]: 1.00
- B/B0% [3, 20]: 17%
- OD450-OD630 [3, 20]: 0.42
- B/B0% [3, 21]: 7%
- OD450-OD630 [3, 21]: 0.17
